From publication PMC8960591, “PCSK9 acts as a key regulator of Aβ clearance across the blood–brain barrier” (Cellular and Molecular Life Sciences: CMLS, 2022)

Legend:
[1] = system: 5xFAD mice; experiment: Plaque load quantification by immunofluorescence; type: in vivo, mouse; details: 6-month-old 5xFAD mice, 1 µg/g Alirocumab for 10 weeks vs 0.9% NaCl, plaques ≥ 80 µm2, mean
Description: (§1) 14-weeks-old female 5xFAD transgenic or wildtype littermates were randomized into groups with similar average body weights (18–20 g), respectively. 1 µg/g Alirocumab (Sanofi), Evolocumab (Amgen), or non-specific human IgG2 control antibody (Bio X Cell) in 0.9% isotonic saline solution (BBraun) or the analogous volume of pure 0.9% isotonic saline solution were weekly i.p. injected for a period of 10 weeks. 7 days before starting the injection procedure LRP1^BE−/− was induced by i.p. injection of 75 µg/g tamoxifen (Sigma-Aldrich) for 5 consecutive days and maintained with chow containing 400 mg/kg tamoxifen citrate (LASvendi). […]
Mice were transcardially perfused with ice-cold PBS followed by 4% Roti®-Histofix (Roth). […] Within one hemisphere 12 sections were analyzed; 6 representatives for prefrontal cortex (corresponding to bregma from 0.86 to + 0.62 mm) and 6 for the hippocampus (corresponding to bregma from − 1.82 to − 2.06 mm). Plaque load (aggregates ≥ 80 µm^2) was quantified using the NIH ImageJ 1.52 software as described previously.
Fig. 5 Aβ plaque load of prefrontal cortex and hippocampus is reduced due to systemic PCSK9 inhibition. A Prefrontal cortex and B hippocampus of 6-month-old 5xFAD mice treated with 1 µg/g alirocumab or 0.9% NaCl for ten weeks were quantified for amyloid plaques. […]

[2] = system: 5xFAD mice; experiment: Brain Aβ1–40 and Aβ1–42 ELISA of soluble and insoluble brain fractions after repetitive anti-PCSK9 antibody injection; type: in vivo, mouse; details: n = 4–14 per group
Description: (§2) 14-weeks-old female 5xFAD transgenic or wildtype littermates were randomized into groups with similar average body weights (18–20 g), respectively. 1 µg/g Alirocumab (Sanofi), Evolocumab (Amgen), or non-specific human IgG2 control antibody (Bio X Cell) in 0.9% isotonic saline solution (BBraun) or the analogous volume of pure 0.9% isotonic saline solution were weekly i.p. injected for a period of 10 weeks. 7 days before starting the injection procedure LRP1^BE−/− was induced by i.p. injection of 75 µg/g tamoxifen (Sigma-Aldrich) for 5 consecutive days and maintained with chow containing 400 mg/kg tamoxifen citrate (LASvendi). To sacrifice animals, mice were anesthetized with 100 µg/g ketamine (Pfizer) in combination with 10 µg/g xylazine (Bayer HealthCare) and euthanized by cervical dislocation.
Extracted blood was supplemented with an EDTA-free protease inhibitor cocktail (Roche Applied Science) and allowed to clot at room temperature for 10 min. Liver were weighed and homogenized in 3 ml/g fresh cold tissue lysis buffer [50 mmol/l Tris (pH 7.4), 150 mmol/l NaCl, 0.1% (w/v) SDS, 1% (v/v) Nonidet P-40, 0.5% (w/v) sodium deoxycholate, 1 mmol/l EDTA (pH 7.4)] containing an EDTA-free protease inhibitor cocktail using the Precellys Lysing Kit (Bertin instruments). Extracts were purified for 3 min (18,620 rcf, 4 °C). CSF samples were isolated via puncture of cisterna magna as described previously and purified for 10 min (1000 rcf, 4 °C). Brains were weighed and soluble and insoluble brain fractions sequential extracted. Initially, homogenization by a glass homogenizer occurred in 6 ml/g PBS, containing an EDTA-free protease inhibitor cocktail and 1 mmol/l EDTA (pH 7.4). The homogenate was centrifuged for 20 min (131,700 rcf, 4 °C) and the supernatant (soluble brain fraction) isolated. Subsequently, the brain pellet was homogenized in 4 ml/g PBS containing 2% (v/v) SDS using the Precellys Lysing Kit. Centrifugation was repeated and the supernatant (insoluble brain fraction) collected. The preparation of capillary-depleted brain fractions based on an established protocol. Briefly, brains were weighed, homogenized by a glass homogenizer in 6 ml/g PBS, and centrifuged for 5 min (1350 rcf, 4 °C). The pellet was resuspended in 3 ml/g PBS, containing 18% dextran (~ 70,000 g/mol; Roth), vortexed thoroughly for 1 min, and centrifuged for 10 min (4863 rcf, 4 °C). Subsequently, the supernatant (capillary-free brain fraction) was transferred, mixed thoroughly with 3 ml/g PBS, and centrifuged for 5 min (1350 rcf, 4 °C). The brain parenchymal pellet was lysed for 20 min using tissue lysis buffer containing an EDTA-free protease inhibitor cocktail and 1 mmol/l EDTA (pH 7.4) and purified for 20 min (18,620 rcf, 4 °C). Each isolated sample was snap frozen via liquid nitrogen and stored at − 80 °C.
The levels of Aβ1–40 and Aβ1–42 in soluble and insoluble brain fractions were blindly determined using Human Amyloid β (FL) Assay Kits (Immuno-Biological Laboratories) according to the manufacturer’s protocol.
Fig. 4 Peripheral PCSK9 inhibition reduces overall Aβ burden. […] Lanes were run on the same gel but were noncontinuous. Aβ1–40 and Aβ1–42 signals were verified by loading peptide standards. Data represent mean ± SEM of n = 4–14 mice per group. For statistical analyses one-way ANOVA followed by Tukey’s multiple comparison test was used (*p < 0.05; **p < 0.01)

[3] = system: 5xFAD mice; experiment: Fear conditioning (contextual and cued fear response, behaviour in training phase); type: in vivo, mouse; details: n = 8–13 per group
Description: as §2
24-week-old female 5xFAD mice LRP1^BEfl/fl or LRP1^BE−/− and wildtype age-matched female littermates treated as described earlier were assessed for contextual and cued fear response adapted to previous studies, using the computerized TSE Multi Conditioning System (TSE GmbH). Movement was assessed by high-resolution infrared sensors (100 Hz) in three dimensions (14 mm distant) and documented by the FCS software. In the training phase, mice were placed in the conditioning chamber for 3 min, followed by a 30-s tone application (72 dB, 9 kHz). During the last 2 s, the tone was accompanied by shock delivery (0.7 mA). Contextual memory testing was performed 24 h-post conditioning, confronting the animals 3 min to the training context without tone application. Cued memory was assessed 2 h later, by pre-exposing the animals 3 min to a non-conditioned context, followed by a tone application for 60 s according to the training session. Freezing behavior (the absence of all but respiratory movements ≥ 2 s), motoric abilities, environmental behavior (% of explored area), and activity (≥ 30 mm/s)/hyperactivity (≥ 200 mm/s) levels were recorded automatically.
Fig. 6 Peripheral PCSK9 inhibition improves contextual memory formation of 5xFAD transgenic mice in a Fear Conditioning paradigm. 6-month-old 5xFAD mice treated with 1 µg/g Alirocumab or 0.9% NaCl for 10 weeks were analyzed for A hippocampus-dependent contextual fear response and B hippocampus-independent cued fear response in comparison to wildtype and LRP1^BE−/− littermates. […] Higher freezing behavior percentage indicates stronger memory formation. Data represent mean ± SEM of n = 8–13 mice per group. For statistical analyses one-way ANOVA followed by Tukey’s multiple comparison test was used (*p < 0.05; **p < 0.01)

[4] = system: 5xFAD mice; experiment: Immunoblot of liver lysates, serum, capillary-depleted brain fractions and CSF; type: in vivo, mouse; details: 6-month-old 5xFAD mice, 1 µg/g Alirocumab for 10 weeks vs 0.9% NaCl
Description: as §1
Protein concentrations were determined using the Pierce™ BCA Protein Assay Kit (Thermo Fisher Scientific) according to the manufacturer’s protocol. […]
Fig. 3 Systemic PCSK9 inhibition increases peripheral LRP1 level. A Liver lysates, B serum, as well as C capillary-depleted brain fractions and D CSF samples of 6-month-old 5xFAD mice, treated repetitively with A–C 1 µg/g Alirocumab or D Evolocumab in comparison to A–C 0.9% NaCl or D non-specific human control IgG2 for 10 weeks were evaluated via immunoblot analyses for LRP1 (full length, α-chain, β-chain), LDL receptor, human as well as mouse IgG, and ApoE, and representatively presented. […]

[5] = system: 5xFAD mice; experiment: Serum LDL/VLDL and HDL cholesterol; type: in vivo, mouse; details: 6-month-old 5xFAD mice, 1 µg/g Evolocumab for 10 weeks vs non-specific human IgG2 control antibody; n = 8–9 per group
Description: as §2
Serum VLDL/LDL and HDL cholesterol were separated and concentrations blindly determined using the Cholesterol Assay Kit—HDL and LDL/VLDL (Abcam) according to the manufacturer’s protocol.
Supplementary Fig. 2 Systemic PCSK9 inhibition reduces serum LDL/VLDL and free PCSK9 levels. (A) Serum LDL/VLDL- and (B) HDL-cholesterol levels of 6-months-old 5xFAD mice, treated repetitively with 1 µg/g Evolocumab or non-specific human IgG2 control antibody for ten weeks were assessed via ELISA. […] Levels of immunoprecipitated PCSK9 were evaluated via immunoblot analyses and representatively presented

[6] = target: T1, PCSK9 (Mus musculus, UniProt Q80W65); experiment: Free circulating PCSK9 in serum (immunoprecipitation with crosslinked Evolocumab, immunoblot); type: in vivo; details: 6-month-old 5xFAD mice, 1 µg/g Evolocumab for 10 weeks vs non-specific human IgG2 control antibody
T1 construct: substantially decreases the amount of free circulating PCSK9; from tissue; host or cells: serum of 6-month-old 5xFAD mice
Description: Precleared serum via raw Protein A Agarose (Roche) was diluted in PBS containing an EDTA-free protease inhibitor cocktail and incubated with Protein A Agarose crosslinked to Evolocumab overnight at 4 °C. Beads were washed three times with PBS, followed by elution in 100 mmol/l glycine (pH 2.7) and neutralization with 500 mmol/l tris (pH 8.0).
Supplementary Fig. 2 Systemic PCSK9 inhibition reduces serum LDL/VLDL and free PCSK9 levels. (A) Serum LDL/VLDL- and (B) HDL-cholesterol levels of 6-months-old 5xFAD mice, treated repetitively with 1 µg/g Evolocumab or non-specific human IgG2 control antibody for ten weeks were assessed via ELISA. Data represents mean ± SEM of n = 8 - 9 mice per group. For statistical analyses unpaired two-tailed t-test was used (*p <0.05). (C) Additionally, serum samples were precleared by using raw Protein A Agarose and incubated with Protein A Agarose crosslinked to Evolocumab. Levels of immunoprecipitated PCSK9 were evaluated via immunoblot analyses and representatively presented

[7] = 5xFAD LRP1BE−/− mice, 1 µg/g Alirocumab for 10 weeks vs 0.9% NaCl
[8] = 6-month-old female 5xFAD mice, 1 µg/g Alirocumab i.p. weekly for 10 weeks vs 0.9% NaCl, mean
[9] = 6-month-old 5xFAD mice, 1 µg/g Alirocumab for 10 weeks vs 0.9% NaCl

T1 sequence (Q80W65 156-694): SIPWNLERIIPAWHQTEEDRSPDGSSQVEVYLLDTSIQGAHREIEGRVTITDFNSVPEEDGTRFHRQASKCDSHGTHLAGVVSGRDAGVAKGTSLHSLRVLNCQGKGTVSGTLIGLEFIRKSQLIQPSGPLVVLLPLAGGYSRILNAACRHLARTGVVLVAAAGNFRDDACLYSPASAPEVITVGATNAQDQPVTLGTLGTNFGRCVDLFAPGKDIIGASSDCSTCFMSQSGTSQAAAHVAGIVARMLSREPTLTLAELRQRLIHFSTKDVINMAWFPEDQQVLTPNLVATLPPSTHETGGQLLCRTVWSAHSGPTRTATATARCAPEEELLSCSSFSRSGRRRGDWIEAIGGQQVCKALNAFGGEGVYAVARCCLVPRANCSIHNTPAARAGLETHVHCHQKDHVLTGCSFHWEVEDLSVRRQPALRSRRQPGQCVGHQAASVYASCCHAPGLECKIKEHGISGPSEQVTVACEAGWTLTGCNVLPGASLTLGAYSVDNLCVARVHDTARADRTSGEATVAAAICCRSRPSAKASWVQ

Molecule | reduction of plaque load, hippocampus ([1]; n = 3–4 per group) | reduction of plaque load, prefrontal cortex ([1]; n = 8 per group) | soluble and insoluble Aβ1–40 and Aβ1–42 levels vs control-treated mice [2, 7] | reduction of insoluble brain Aβ1–40 [2, 8] | reduction of insoluble brain Aβ1–42 [2, 8] | reduction of soluble brain Aβ1–40 [2, 8] | reduction of soluble brain Aβ1–42 [2, 8] | hippocampus-dependent learning capacity (contextual fear) [3, 7] | hippocampus-independent cued fear response ([3]; 5xFAD, 5xFAD LRP1BE−/− and wildtype littermates, PCSK9 inhibition or control, 2 h after contextual test) | contextual fear response (freezing) vs control-treated 5xFAD mice ([3]; 6-month-old 5xFAD mice, 1 µg/g Alirocumab for 10 weeks vs 0.9% NaCl, 24 h post-training) | activity and hyperactivity levels and basal freezing during the conditioning phase [3, 9] | motoric abilities and environmental behavior during the conditioning phase [3, 9] | contextual freezing vs control-treated wildtype littermates ([3]; 6-month-old 5xFAD mice, 1 µg/g Alirocumab for 10 weeks, 24 h post-training) | contextual freezing, treated vs control-treated wildtype animals ([3]; wildtype littermates, 1 µg/g Alirocumab for 10 weeks vs 0.9% NaCl) | peripheral LRP1 level (liver lysates) [4] | serum LDL/VLDL-cholesterol level [5] | free PCSK9 level in serum [6]
Alirocumab: FDA-approved monoclonal anti-PCSK9 antibody (Sanofi) | ~ 23% | ~ 17% | no significant difference | ~ 44% | ~ 38% | ~ 58% | ~ 51% | do not significantly benefit | no significant differences | significant increased | No differences | No differences | no significant difference | did not detect any significant difference | increases | – | –
Evolocumab: FDA-approved monoclonal anti-PCSK9 antibody (Amgen) (antibody, chains of the INN, looked up, V domains shown) VH: EVQLVQSGAEVKKPGASVKVSCKASGYTLTSYGISWVRQAPGQGLEWMGWVSFYNGNTNYAQKLQGRGTMTTDPSTSTAYMELRSLRSDDTAVYYCARGYGMDVWGQGTTVTVSS VL: ESALTQPASVSGSPGQSITISCTGTSSDVGGYNSVSWYQQHPGKAPKLMIYEVSNRPSGVSNRFSGSKSGNTASLTISGLQAEDEADYYCNSYTSTSMVFGGGTKLTVL | – | – | – | – | – | – | – | – | – | – | – | – | – | – | – | reduces | reduces
